Assay [1] relates to guinea-pig ileal preparation. The experiment in a line: Potentiation of adenosine depression of contractile response, procedure II (after exposure to and washout of test compound). Particulars: for Mean potentiation ratio ± SEM / potentiation ratio, Max / potentiation ratio, Min: adenosine 0.4 uM, after exposure and washout, 5, 50-400, 6, 50-400; for Mean potentiation ratio ± SEM: drug conc. (uM): 3, 100-400, 2a, 1000, 2, 1000; for potentiation ratio, Max / potentiation ratio, Min: drug conc. range (uM): 3, 100-400; for potentiating effect retained after wash-out from the organ bath (in words): guinea pig ileal preparation after wash-out; for rate of restoration of the original response to adenosine after washout: after exposure to and washout of the potentiating agent. The protocol:
(§1) The test system used is the intramural electrically-stimulated guinea-pig ileal preparation as described in EXAMPLE 10. Adenosine added to the organ bath in rising concentrations in the range 0.1-10 uM causes a dose-dependent decrease in contraction amplitude, with an EC50 of about 1 uM.
(§2) The calculated effect is the product of the responses to each of the two agents when applied separately. The potentiation ratio is defined as (100%found)/(100-% calculated).
In all cases, the difference between the calculated and observed response was statistically significant. […] In procedure II, the dose response to adenosine was determined before and after exposure of the preparation to the test drug and washout of the test drug from the organ bath. In this case, significant potentiation of adenosine was observed even though the test drug had been washed out from the organ bath. In fact, the potentiation ratio, as defined earlier, was even higher than found in the presence of the test compounds (Procedure I), reaching very high values.

The subject of assay [2] is guinea-pig ileal preparation. Put plainly: Potentiation of adenosine depression of contractile response, procedure I (in the presence of test compound). Particulars: drug present. The procedure: as §1
In procedure I, the effect of a given concentration of adenosine, usually, 0.2 or 0.4 uM was first determined and related to the full contractile response in the absence of adenosine. […] The amplitude of the contractile response was recorded. Now, adenosine was added at the same dose initially used, and the effect of adenosine in the presence of the test compound was recorded.
as §2

The test system of another assay is mice. The experiment in a line: Protection against hypobaric hypoxia in mice (survival time). Format: in vivo. The following applies: for activity in the hypobaric hypoxia model (in words): dose of 25 mg/kg, listed in decreasing order of activity. The protocol:
The apparatus used consisted of two chambers A and B connected by a three-way valve. […] The air in chamber A was evacuated to a pressure of 100 mm Hg. The three way valve was turned to disconnect chamber B from room air and to connect it to chamber A. At this point, the pressure in B fell to 200 mm Hg. Survival of residing mice was determined up to a maximum exposure of 15 minutes, and is defined as the time between onset of hypoxia to cessation of respiration.

Another assay concerns Male ICR mice. Put plainly: Protection against maximal electroshock-induced seizure in mice (MES). It counts as in vivo. The following applies: for protected/total: electroshock 30 min after medication; for ED50: Mus musculus, median effective dose, maximal electroshock, mice, ip, read-out: ED50 (95% confidence limits). The protocol:
Male ICR mice were used. The rodent shocker apparatus consisted of a shock stimulator Type 221 (Hugo Sachs Elektronik, Germany) with a current setting for mice. Thirty minutes after medication with a given agent, given intraperitoneally as a fine slurry in methyl cellulose 0.5% in distilled water, each mouse received an electroshock of 50 mA for 0.2 seconds, applied to the eye, at a maximum of 250 V/300 mA. The ratio of mice protected against seizure in a group of four per dose was determined and used as an indicator of neuroprotective activity.
Protection of mice against seizures induced by electroshock is a widely used model to probe for potential anti-epileptic agents (see, for example, Y. I. Sohn et al., Anticonvulsant properties of diphenylthiohydantoin, Arch. Int. Pharmacodyn. 188, 284-289, 1970).
A general note: The maximal electroshock test induces tonic seizures with an electrical stimulus.

The test system of assay [3] is guinea-pig ileal preparation. The experiment in a line: Decrease in contractile response of guinea-pig ileum evoked by the nicotinic agonist DMPP. The following applies: for EC50: Cavia porcellus, calculated from logit plot, inhibiting contractile response to 1 uM DMPP, read-out: EC50. The protocol:
A strip of guinea-pig ileum is mounted in an organ bath, as described in EXAMPLE 10. 1-N,N-dimethyl-4-N-phenylpiperazinium chloride (DMPP) is added at intervals of about 15 minutes in order of increasing dose, to cause bath concentrations in the range of 0.1-10 uM. A brief contraction follows each addition. The amplitude of the contractile response is used to derive a dose-response relationship for DMPP. Usually, a bath concentration of 1 uM DMPP will give 90-100% of the maximal response obtainable in the given preparation. One of two procedures follows this: A dose-response of a test compound is determined in the presence of a fixed concentration of DMPP. This is done by incubating the preparation with a given concentration of the test compound, then challenging it with DMPP at a dose to give 1 uM bath concentration. The procedure is repeated with the next higher concentration of the test compound. In the other procedure, the dose-response of DMPP is determined in the presence of a fixed bath concentration of the test compound, usually 200 uM.
When intramural nerve stimulation occurs, as in the case of electrical stimulation, the contractile effector substance is released from nerve endings by a depolarization wave that propagates along the parasympathetic nerve fiber until its junction with smooth muscle of the ileum. An alternative but not equivalent procedure is stimulation of parasympathetic ganglia by an appropriate nicotinic agonist such as 1-N,N-dimethyl-4-N-phenylpiperazinium chloride (DMPP). Stimulation of parasympathetic ganglia causes a depolarization wave in the post-ganglionic nerve fiber which terminates on the smooth muscle of the ileum, causing release of contractile effector and contraction (see, for example, E. S. Vizi, Acetylcholine release from guinea-pig ileum by parasympathetic ganglion stimulants and gastrin-like polypeptides, Br. J. Pharmacol. 47, 765-77. 1973).

The test system of assay [4] is guinea-pig ileal preparation. The experiment in a line: Decrease of contractile response to intramural electric stimulation in the guinea-pig ileal preparation. The following applies: Cavia porcellus; calculated from logit plot; contractile response to intramural electric stimulation; read-out: EC50. The procedure:
A 2 cm-long section of the distal ileum freshly dissected from a CO2-asphyxiated guinea pig is cleaned from adhering tissue and mounted in an organ bath (5 mL) containing Krebs solution constantly aerated with oxygen containing 5% CO2. The initial tension is adjusted at 5 g per strip. Tension is monitored isometrically with a Grass FTC3 force transducer. Intramural electric stimulation is delivered through a platinum electrode from a Grass stimulator model s88, s44 at supramaximal voltage (V) and a frequency of 0.1/s. The preparation develops a rhythmic contractile response at maximal amplitude which is stable over time. Addition of test drugs to the organ bath causes a dose-dependent decrease in contraction amplitude which is stable over 5-8 minutes. The relative decrease in contractile response indicates the relative potency of a given agent in a series.
Blocking or decreasing neural excitability evoked by programmed electric stimulation is another indicator of a compound's potential neuroprotective activity. A convenient test system uses the guinea-pig ileal preparation mounted in an organ bath (see, for example, Eiichi Hayashi et al., European J. Pharmacol 48, 297-307, 1978).

[5] abbreviates: adenosine 0.4 uM, drug conc. range (uM): 3, 20-400, 5, 50-200, 6, 25-50.
[6] abbreviates: Mus musculus, ip, mice, 200 mm Hg, read-out: survival ± SD (survival time as percent of vehicle control).
The mark [7] stands for this setting: adenosine 0.2 uM, drug conc. range 40-400 uM.

Regarding `O=CNC1=CCc2ccccc21` [Compound 5, N-Formyl-3-amino-1H-indene], in assay [1], the “Mean potentiation ratio ± SEM” value stood at 5.55 ± 1.0; the “potentiation ratio, Max” value is 7.28; the “potentiation ratio, Min” value is on record as 3.78; the “potentiating effect retained after wash-out from the organ bath (in words)” value is given as “prolonged potentiating effect”. In assay [2] (setting [5]), the “Mean potentiation ratio ± SEM” value stood at 2.19 ± 0.36; the “potentiation ratio, Max” value turned out to be 2.60; the “potentiation ratio, Min” value was determined as 1.47. Moreover, the response vs control in vivo at 12.5 mg/kg in the assay with mice (Mus musculus, 12.5 mg/kg, ip, mice, 200 mm Hg, read-out: survival ± SD (survival time as percent of vehicle control)) was determined as 248 ± 154%. In the assay with mice (setting [6]), the response vs control in vivo at 25 mg/kg came out at 586 ± 253%, the response vs control in vivo at 50 mg/kg is 331 ± 272% and the response vs control in vivo at 100 mg/kg turned out to be 489 ± 286%. In the assay on mice, the “activity in the hypobaric hypoxia model (in words)” value is recorded as “strong activity”. Besides, the protected/total with Male ICR mice (50 mg/kg intraperitoneally) is listed as 0/4. Besides, the protected/total in the assay with Male ICR mice (75 mg/kg intraperitoneally) is listed as 1/4. For the same molecule, the protected/total with Male ICR mice (100 mg/kg intraperitoneally) is on record as 4/4. For the same molecule, in the assay on Male ICR mice, the ED50 was determined as 79.4 mg/kg. In addition, in assay [3], the EC50 was 34 µM. Besides, in assay [4], the EC50 is 188 µM.

As for `CC(=O)N[C@@H]1CCc2ccccc21` [Compound 2a, (R)-N-acetyl-1-aminoindan, reference compound], in assay [1], the “Mean potentiation ratio ± SEM” value is listed as 1.41 and the “rate of restoration of the original response to adenosine after washout” value was “fastest”. In assay [2] (setting [7]), the “Mean potentiation ratio ± SEM” value is 1.31 ± 0.05; the “potentiation ratio, Max” value is recorded as 1.43; the “potentiation ratio, Min” value is recorded as 1.19. Besides, in the assay on mice (setting [6]), the response vs control in vivo at 25 mg/kg amounted to 142 ± 94%, the response vs control in vivo at 50 mg/kg was 299 ± 69% and the response vs control in vivo at 100 mg/kg worked out at 375 ± 72%. Further, the response vs control in vivo at 36 mg/kg in the assay with mice (Mus musculus, 36 mg/kg, ip, mice, 200 mm Hg, read-out: survival ± SD (survival time as percent of vehicle control)) was 110 ± 57%. Further, in the assay on Male ICR mice (25 mg/kg intraperitoneally), the protected/total is 0/4. The protected/total in the assay on Male ICR mice (50 mg/kg intraperitoneally) is 3/4. The protected/total with Male ICR mice (100 mg/kg intraperitoneally) is given as 4/4. For the same molecule, in the assay on Male ICR mice, the ED50 was found to be 42 mg/kg. For the same molecule, the EC50 in assay [3] is 279 µM. Also, in assay [3] (test compound at 200 uM fixed bath concentration, FIG. 8), the “reversibility of the depression by rising concentrations of DMPP” value was “almost to full restoration”. The EC50 in assay [4] was 748 µM.

With `CC(=O)NC1=CCc2cc(Cl)ccc21` [Compound 6, N-Acetyl-3-amino-6-chloro-1H-indene], in assay [1], the “Mean potentiation ratio ± SEM” value is 8.82 ± 1.2; the “potentiation ratio, Max” value came to 12.28; the “potentiation ratio, Min” value worked out at 6.86; the “rate of restoration of the original response to adenosine after washout” value was “slowest”. For the same molecule, the “potentiating effect retained after wash-out from the organ bath (in words)” value in assay [1] is given as “prolonged potentiating effect”. In assay [2] (setting [5]), the “Mean potentiation ratio ± SEM” value turned out to be 1.93 ± 0.39; the “potentiation ratio, Max” value stood at 2.32; the “potentiation ratio, Min” value was 1.54. In addition, in the assay on mice (setting [6]), the response vs control in vivo at 25 mg/kg came out at 393 ± 110%, the response vs control in vivo at 50 mg/kg came out at 234 ± 120% and the response vs control in vivo at 100 mg/kg turned out to be 294 ± 267%. Moreover, the “activity in the hypobaric hypoxia model (in words)” value with mice was “strong activity”. In addition, the protected/total in the assay with Male ICR mice (50 mg/kg intraperitoneally) was 2/4. In the assay on Male ICR mice (100 mg/kg intraperitoneally), the protected/total was 4/4. Besides, the ED50 in the assay with Male ICR mice amounted to 50 mg/kg. Besides, the EC50 in assay [3] is 27 µM. In assay [4], the EC50 is 133 µM.

The ED50 is the midpoint of the dose-response relation. One may read the EC50 as the concentration needed to bring the measured effect to its halfway point.

The record behind these values is patent US6737547B1, “Compositions containing and methods of using N-acyl-1H-aminoindenes” (Teva Pharmaceutical Industries, Ltd., priority 1998, dated 2004).
